From ChEMBL document CHEMBL1152778, “Design, synthesis, and biological evaluation of (2R,alphaS)-3,4-dihydro-2-[3-(1,1,2,2-tetrafluoroethoxy)phenyl]-5-[3-(trifluoromethoxy)-phenyl]-alpha-(trifluoromethyl)-1(2H)-quinolineethanol as potent and orally active cholesteryl ester transfer protein inhibitor” (J Med Chem, 2009)

Target: T1, Cholesteryl ester transfer protein (Homo sapiens, UniProt P11597)
T1 sequence (P11597 whole entry): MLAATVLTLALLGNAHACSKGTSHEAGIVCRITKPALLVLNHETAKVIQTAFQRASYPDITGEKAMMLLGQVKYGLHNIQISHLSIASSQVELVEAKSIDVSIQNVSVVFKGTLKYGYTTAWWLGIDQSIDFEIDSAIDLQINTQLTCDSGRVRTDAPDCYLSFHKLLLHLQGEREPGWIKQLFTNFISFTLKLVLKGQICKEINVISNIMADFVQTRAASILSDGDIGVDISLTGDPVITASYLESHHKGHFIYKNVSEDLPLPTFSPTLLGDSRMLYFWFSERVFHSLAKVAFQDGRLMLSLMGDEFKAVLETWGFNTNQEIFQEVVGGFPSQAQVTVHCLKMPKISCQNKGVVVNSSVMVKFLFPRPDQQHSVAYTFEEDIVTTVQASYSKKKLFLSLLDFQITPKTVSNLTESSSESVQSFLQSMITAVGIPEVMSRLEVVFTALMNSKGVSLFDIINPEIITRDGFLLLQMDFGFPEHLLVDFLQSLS
Experiment: Inhibition of CETP-mediated transfer of [3H]cholesteryl ester from HDL donar particles to LDL acceptor particles

`OC(CN1c2cccc(-c3cccc(OC(F)(F)F)c3)c2CCC1c1cccc(OC(F)(F)C(F)F)c1)C(F)(F)F` (racemic) showed an IC50 of 45 nM.
